Data reported in US9872928B2, “Diagnostic agent for therapeutic effect on cancer” (HAMAMATSU PHOTONICS K.K., priority 2013, dated 2018).

How the values were obtained:
[1] = system: mitochondria Complex-1; experiment: Evaluation of binding affinity with respect to mitochondria Complex-1 (displacement of [3H]dihydrorotenone tracer from mitochondrial fraction); parameters: species or system rat (brain) and bull (heart); settings: FIG. 1
Description: A dose-response curve of each of a TEST substance and a positive substance was created, and a concentration (IC50 value) at which the TEST substance and the positive substance suppress 50% of bonding between a tracer and mitochondrial Complex-1 (receptor) and an absolute inhibition constant (Ki) were calculated. As the TEST substance, [^18F]BMS-747158-02 (2-tert-butyl-4-chloro-5-[4-(2-fluoro-ethoxymethyl)-benzyloxy]-2H-pyri dazin-3-one, hereinafter also referred to as “BMS”), BCPP-EF, BCPP-BF, BCPP-PF, BCPP-EM, and BMS-P were used. The details will be described below.
An animal tissue was weighed (wet weight), a homogenization buffer solution (10 mmol/L Tris-HCl buffer solution (pH, 7.40) of 250 mmol/L sucrose, 1 mmol/L succinic acid, and 0.2 mmol/L EDTA) was added in an amount twice the amount of the animal tissue, and the mixture was homogenized under ice cooling. Thereafter, the homogenized suspension solution was centrifuged (1200×g, 4° C., 20 minutes). The supernatant was collected and centrifuged (26000×g, 4° C., 15 minutes). […] The protein concentration of the mitochondrial fraction was measured using BCA Protein Assay Reagent (manufactured by Pierce Companies). […]
Measurement was performed according to the following order. Two samples were prepared for each concentration, and each sample was measured three times. […]

[2] = system: SCCVII cells tumor tissue; experiment: Judgment of effect of cancer therapy using PET measurement in cancer-bearing mice after X-ray irradiation; format: in vivo, mouse
Description: When the tumor volume reached about 100 mm^3, a cancer therapy using irradiation with an X-ray was performed to a tumor site of a mouse at a dose ratio of 1.2 Gy/minute using an apparatus which can perform irradiation with an X-ray having an energy of 250 keV (Hitachi Power Solutions MBR-1520R-3). As conditions of irradiation with X-ray, four conditions of non-irradiation (0 Gy, control), 6 Gy, 15 Gy, and 30 Gy were set. Also after the irradiation treatment, the tumor volume was regularly measured according to the above method.
Two days and seven days after irradiation with X-ray, a mouse with a tumor tissue (cancer-bearing mouse) was anesthetized by isoflurane gas. Thereafter, four mice were fixed at one time in a gantry of an animal PET camera (HAMAMATSU SHR-38000). For absorption correction, transmission measurement was performed using a ^68Ge-^68Ga calibration-ray source for 15 minutes. Thereafter, about 5 MBq/0.2 mL of [^18F]BCPP-EF was administered into a tail vein of a mouse, and dynamic emission measurement was performed for 60 minutes. FIG. 3 illustrates a PET image showing an effect of the radiation therapy in the tumor tissue of a mouse.
After the PET measurement was finished, each of the mice was moved to a small animal X-CT (SHIMADZ Clairvivo CT) with a fixed stand while being anesthetized, and CT measurement was performed for ten minutes. A form image (X-CT image) obtained by the CT measurement was collected, a PET accumulated image 40 to 60 minutes after administration of [^18F]BCPP-EF was superimposed on the X-CT image, and a PET image of a cancer tissue was identified.
An interest region was set on the PET image of the cancer tissue, and a value normalized with a body weight of an individual and an administration radiation dose was used as an accumulation amount of [^18F]BCPP-EF in the cancer tissue. The results are illustrated in FIG. 4.

Row | Structure (SMILES) | affinity with respect to mitochondria Complex-1 ([1]; suggested from dose-response curve) | IC50 (concentration suppressing 50% of bonding between tracer and mitochondrial Complex-1), comparison in words ([1]; tracer dihydrorotenone[2-isopropyl-3H(N)], 22° C., 30 minutes) | accumulation in the tumor tissue (PET) as the irradiation dose was increased ([2]; X-ray 0, 6, 15, 30 Gy, FIGS. 3 and 4) | accumulation in the tumor tissue (PET) ([2]; before the radiation therapy, tail vein administration) | increase in accumulation in proportion to the radiation dose, duration ([2]; seven days after irradiation with radiation, FIGS. 3 and 4) | accumulation in the tumor tissue (PET) ([2]; two days after irradiation with radiation, PET image 40 to 60 minutes after administration)
1 | CC(C)(C)n1ncc(OCc2ccc(OCCCCF)nc2)c(Cl)c1=O [BCPP-BF] | high affinity | lowest IC50 | – | – | – | –
2 | CC(C)(C)n1ncc(OCc2ccc(OCCOCC[18F])nc2)c(Cl)c1=O [[^18F]BCPP-EF] | – | – | increase in accumulation | not observed | continued until seven days after irradiation | increased
